Data from patent US4808605A, “Tetrahydronaphthalene derivatives as calcium antagonists” (Hoffmann-La Roche Inc., priority 1986, dated 1989).

Experiments:
narcotized dog = assay: Haemodynamic parameters in the narcotized dog (Test C); assay type: in vivo; settings: % maximum variation from initial value; for BP Δ %: blood pressure; for CBF Δ %: coronary blood flow; for HR Δ %: heart rate; for dp/dt Δ %: rate of increase in left ventricular pressure
Experimental: C. […] The values are given as the % maximum variation from the initial value (Δ %) and the duration of this variation (t) per dosage administered. There is thus obtained not only an overall picture of the activity of the substance, but also an estimation as to the potential selectivity for a specific part of the circulatory system in the entire organism. After the administration of an anaesthetic, the dog is intubated and respired artificially. Blood pH, pC2 O , pO2 and haemoglobin are measured hourly with a blood-gas analyser. The blood pressure (systolic and diastolic) is measured with a probe in the aorta abdominalis. The heart freguency is recorded by means of a tachometer, which is disengaged from the pressure pulse. For the other measurements the heart must be firstly be opened in order that a probe can be inserted in the left ventricle (heart chamber) for the pressure measurements (dp/dt). The coronary blood flow is measured with a flowing probe in the left coronary artery (descendens).

[1] = target: T1, ^3 H-desmethoxyverapamil binding, partially-cleaned membranes of guinea pig heart (Cavia porcellus, UniProt O35505); assay: ^3 H-Desmethoxyverapamil binding determinations (Test A); settings: half-maximum inhibition of specific ^3 H-desmethoxyverapamil binding; 2.5 nM; 120 minutes at 37° C.
T1 construct: partially-cleaned membranes of guinea pig heart; from tissue; host or cells: guinea pig heart, partially-cleaned membranes
Experimental: A. ^3 H-Desmethoxyverapamil binding determinations:
The determination is carried out on partially-cleaned membranes of guinea pig heart. […] The incubation lasts 120 minutes at 37° C. and is stopped by dilution with the incubation buffer; a filtration is subsequently carried out. The filter-bound radioactivity is measured with a scintillation counter. Specific binding (i.e. receptor-bound) is defined as the difference between total and unspecific-bound radioactivity. The unspecific binding is determined in the presence of an excess of non-radioactive verapamil (10 μM).
The activity (potency) of a compound in this test is defined by the IC50 value. The IC50 is the substance concentration (in mol/l) which produces a half-maximum inhibition of the specific ^3 H-desmethoxyverapamil binding. This value is extrapolated from a concentration-binding curve.

[2] = test system: Isolated, perfused guinea pig heart; assay: Isolated, perfused guinea pig heart according to Langendorff (Test B); settings: Cavia porcellus, infusion, 10^-10 to 10^-6 M, pH 7.3, 37° C., read-out: CBF IC50
Experimental: B. Isolated, perfused guinea pig heart according to Langendorff: Guinea pigs weighing approximately 400 g are narcotized with Urethan (1 g/kg i.p.) and the heart is removed rapidly. […] A Miller microtip catheter pressure transducer (PC-350) is inserted in the left heart chamber in order to measure the left ventricular pressure. The total coronary artery flow is collected in a funnel and measured with an electro magnetic flow meter. All measurement parameters are recorded on a recording apparatus (Gould, Model 2800). The test begins after an adaptation of 45 minutes. Substances are infused with a velocity of 1% of the total coronary flow rate. A complete concentration-activity curve (10^-10 to 10^-6 M) is prepared for each substance.

T1 sequence (O35505 whole entry): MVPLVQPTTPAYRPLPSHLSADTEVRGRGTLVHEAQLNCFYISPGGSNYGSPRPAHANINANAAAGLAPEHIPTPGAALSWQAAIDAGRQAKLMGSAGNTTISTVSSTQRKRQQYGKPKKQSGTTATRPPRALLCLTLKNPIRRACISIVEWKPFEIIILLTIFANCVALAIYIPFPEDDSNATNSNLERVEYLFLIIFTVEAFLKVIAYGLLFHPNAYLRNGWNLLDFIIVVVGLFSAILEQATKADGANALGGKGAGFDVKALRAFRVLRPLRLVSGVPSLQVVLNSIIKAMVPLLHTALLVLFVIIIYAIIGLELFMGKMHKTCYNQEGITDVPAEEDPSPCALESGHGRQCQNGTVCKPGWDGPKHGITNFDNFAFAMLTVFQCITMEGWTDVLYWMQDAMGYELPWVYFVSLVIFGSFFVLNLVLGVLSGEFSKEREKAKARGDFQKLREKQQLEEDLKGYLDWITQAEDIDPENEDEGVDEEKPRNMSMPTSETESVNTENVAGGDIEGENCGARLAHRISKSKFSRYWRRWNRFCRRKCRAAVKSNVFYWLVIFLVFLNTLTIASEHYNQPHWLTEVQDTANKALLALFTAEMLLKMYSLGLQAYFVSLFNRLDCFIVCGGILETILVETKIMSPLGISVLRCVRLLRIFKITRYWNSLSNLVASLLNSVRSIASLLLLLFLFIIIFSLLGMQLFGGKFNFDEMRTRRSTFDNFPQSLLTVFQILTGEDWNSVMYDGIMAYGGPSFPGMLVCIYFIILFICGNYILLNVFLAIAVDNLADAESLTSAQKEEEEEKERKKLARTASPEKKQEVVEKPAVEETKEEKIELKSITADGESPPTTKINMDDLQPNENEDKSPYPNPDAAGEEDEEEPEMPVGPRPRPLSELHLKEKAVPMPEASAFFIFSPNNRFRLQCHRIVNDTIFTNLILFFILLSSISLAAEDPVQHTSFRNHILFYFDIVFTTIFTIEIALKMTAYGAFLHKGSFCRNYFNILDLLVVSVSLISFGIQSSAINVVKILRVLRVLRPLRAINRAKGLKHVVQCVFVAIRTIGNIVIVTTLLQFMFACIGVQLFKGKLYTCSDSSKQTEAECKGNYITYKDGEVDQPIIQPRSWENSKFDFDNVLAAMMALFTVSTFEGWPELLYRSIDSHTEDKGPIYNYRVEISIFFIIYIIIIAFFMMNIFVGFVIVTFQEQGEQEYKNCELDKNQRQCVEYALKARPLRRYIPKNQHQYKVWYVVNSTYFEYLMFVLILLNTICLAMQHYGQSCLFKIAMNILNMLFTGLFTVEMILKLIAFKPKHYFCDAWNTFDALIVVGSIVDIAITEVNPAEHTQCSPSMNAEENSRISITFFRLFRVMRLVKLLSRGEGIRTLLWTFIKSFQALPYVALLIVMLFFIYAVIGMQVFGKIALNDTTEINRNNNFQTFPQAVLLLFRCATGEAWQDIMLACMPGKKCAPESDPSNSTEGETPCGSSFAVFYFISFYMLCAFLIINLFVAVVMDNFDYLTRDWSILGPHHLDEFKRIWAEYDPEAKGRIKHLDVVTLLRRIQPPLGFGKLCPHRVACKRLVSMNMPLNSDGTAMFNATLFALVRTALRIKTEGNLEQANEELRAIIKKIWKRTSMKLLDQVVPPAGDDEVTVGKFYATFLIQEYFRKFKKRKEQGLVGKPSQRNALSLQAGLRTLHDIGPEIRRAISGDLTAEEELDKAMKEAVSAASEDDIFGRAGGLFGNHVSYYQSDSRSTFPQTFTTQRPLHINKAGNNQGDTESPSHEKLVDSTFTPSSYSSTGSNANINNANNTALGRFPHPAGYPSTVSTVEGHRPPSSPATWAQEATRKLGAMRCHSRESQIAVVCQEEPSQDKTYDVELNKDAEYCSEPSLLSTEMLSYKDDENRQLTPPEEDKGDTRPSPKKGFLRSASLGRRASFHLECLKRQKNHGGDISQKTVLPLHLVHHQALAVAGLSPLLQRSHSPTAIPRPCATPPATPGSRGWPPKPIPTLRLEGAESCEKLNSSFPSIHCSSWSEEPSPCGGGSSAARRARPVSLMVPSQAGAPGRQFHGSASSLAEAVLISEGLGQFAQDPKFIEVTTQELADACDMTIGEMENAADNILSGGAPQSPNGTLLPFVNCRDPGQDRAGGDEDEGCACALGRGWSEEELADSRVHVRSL

Compound	IC50 [1] [µM]	IC50 [2] [µM]	BP Δ % (narcotized dog; 0.3 mg/kg i.v.) [%]	CBF Δ % (narcotized dog; 0.3 mg/kg i.v.) [%]	HR Δ % (narcotized dog; 0.3 mg/kg i.v.) [%]	dp/dt Δ % (narcotized dog; 0.3 mg/kg i.v.) [%]	BP Δ % (narcotized dog; 1 mg/kg i.v.) [%]	CBF Δ % (narcotized dog; 1 mg/kg i.v.) [%]	HR Δ % (narcotized dog; 1 mg/kg i.v.) [%]	dp/dt Δ % (narcotized dog; 1 mg/kg i.v.) [%]	BP Δ % (narcotized dog; 0.03 mg/kg i.v.) [%]	CBF Δ % (narcotized dog; 0.03 mg/kg i.v.) [%]	HR Δ % (narcotized dog; 0.03 mg/kg i.v.) [%]	dp/dt Δ % (narcotized dog; 0.03 mg/kg i.v.) [%]
COCC(=O)O[C@]1(CCN(C)CCCc2nc(-c3ccccc3)c(-c3ccccc3)n2C)CCc2cc(F)ccc2[C@@H]1C(C)C [G, [1S,2S]-6-fluoro-1,2,3,4-tetrahydro-1-isopropyl-2-[2-[[3-(1-methyl-4,5-diphenylimidazol-2-yl)propyl]methylamino]ethyl]-2-naphthyl methoxyacetate]	0.15	0.0018	-20	96	-15	11								
COCC(=O)O[C@]1(CCN(C)CCCc2nc3ccccc3[nH]2)CCc2cc(F)ccc2[C@@H]1C(C)C [A, [1S,2S]-2-[2-[[3-(2-benzimidazolyl)propyl]methylamino]ethyl]-6-fluoro-1,2,3,4-tetrahydro-1-isopropyl-2-naphthyl methoxyacetate]	0.13	0.047	-22	86	-7	25								
COCC(=O)O[C@]1(CC[N+](C)([O-])CCCc2nc3ccccc3[nH]2)CCc2cc(F)ccc2[C@@H]1C(C)C (stereo partly drawn) [E, [1S,2S]-2-[2-[[3-(2-benzimidazolyl)propyl]methyl-N-oxidoamino]ethyl]-6-fluoro-1,2,3,4-tetrahydro-1-isopropyl-2-naphthyl methoxyacetate]	1	10					-8	57	0	10				
COCC(=O)O[C@]1(CCN(C)CCCCCc2nc3ccccc3s2)CCc2cc(F)ccc2[C@@H]1C(C)C [H, [1S,2S]-2-[2-[[5-(2-benzthiazolyl)pentyl]methylamino]ethyl]-6-fluoro-1,2,3,4-tetrahydro-1-isopropyl-2-naphthyl methoxyacetate]	0.028	0.0024	-28	146	-41	25								
COCC(=O)O[C@]1(CCN(C)Cc2ccc(Cc3nc4ccccc4[nH]3)cc2)CCc2cc(F)ccc2[C@@H]1C(C)C [I, [1S,2S]-6-fluoro-1,2,3,4-tetrahydro-1-isopropyl-2-[2-[[4-[(2-benzimidazolyl)methyl]benzyl]methylamino]ethyl]-2-naphthyl methoxyacetate]	0.1	0.022	-14	82	-9	18								
CC(C)[C@H]1c2ccc(F)cc2CC[C@]1(O)CCN(C)CCCCCCCc1nc2ccccc2[nH]1 [B, [1S,2S]-2-[2-[[7-(2-benzimidazolyl)heptyl]methylamino]ethyl]-6-fluoro-1,2,3,4-tetrahydro-1-isopropyl-2-naphthalenol]	0.63	0.05	-6	36	0	8								

More lines, in order of falling IC50 [1], values ahead:

IC50 [1] [µM]	IC50 [2] [µM]	Compound	BP Δ % (narcotized dog; 0.3 mg/kg i.v.) [%]	CBF Δ % (narcotized dog; 0.3 mg/kg i.v.) [%]	HR Δ % (narcotized dog; 0.3 mg/kg i.v.) [%]	dp/dt Δ % (narcotized dog; 0.3 mg/kg i.v.) [%]	BP Δ % (narcotized dog; 1 mg/kg i.v.) [%]	CBF Δ % (narcotized dog; 1 mg/kg i.v.) [%]	HR Δ % (narcotized dog; 1 mg/kg i.v.) [%]	dp/dt Δ % (narcotized dog; 1 mg/kg i.v.) [%]	BP Δ % (narcotized dog; 0.03 mg/kg i.v.) [%]	CBF Δ % (narcotized dog; 0.03 mg/kg i.v.) [%]	HR Δ % (narcotized dog; 0.03 mg/kg i.v.) [%]	dp/dt Δ % (narcotized dog; 0.03 mg/kg i.v.) [%]
0.21	0.017	CCCCNC(=O)O[C@]1(CCN(C)CCCCCc2nc3ccccc3n2C)CCc2cc(F)ccc2[C@@H]1C(C)C [C, [1S,2S]-6-fluoro-1,2,3,4-tetrahydro-1-isopropyl-2-[2-[methyl-[5-(1-methyl-2-benzimidazolyl)pentyl]amino]ethyl]-2-naphthyl butylcarbamate]	-16	62	-9	15								
0.034	0.028	CCCCCCCCCCCCn1c(CCCCCCCN(C)CC[C@@]2(OC(=O)COC)CCc3cc(F)ccc3[C@@H]2C(C)C)nc2ccccc21 [F, [1S,2S]-2-[2-[[7-(1-dodecyl-2-benzimidazolyl)heptyl]methylamino]ethyl]-6-fluoro-1,2,3,4-tetrahydro-1-isopropyl-2-naphthyl methoxyacetate]	-3	46	-2	4								
0.032	0.0011	COCC(=O)O[C@]1(CCN(C)CCCCCCn2c(=O)[nH]c3ccccc32)CCc2cc(F)ccc2[C@@H]1C(C)C [D, [1S,2S]-6-fluoro-1,2,3,4-tetrahydro-1-isopropyl-2-[2-[methyl-[6-(2-oxo-1-benzimidazolinyl)hexyl]amino]ethyl]-2-naphthyl methoxyacetate]									-21	22	-25	6
